Source: article PMC8286840, “Identifying SARS-CoV-2 antiviral compounds by screening for small molecule inhibitors of Nsp3 papain-like protease” (Biochemical Journal, 2021)
Counter-ions that a name gives are not always drawn. Like-named read-outs stand apart in the source and are kept apart here.

How the values were obtained:
[1] = target: T1, SARS-CoV-2 PLpro (nsp3 1564–1878) (Severe acute respiratory syndrome coronavirus 2, UniProt P0DTD1); assay: biochemical; design: FRET-quenched peptide (Pro3) cleavage by PLpro, 10 min pre-incubation, slope over 20 min, normalised to no-compound control; settings: low concentration screen, read-out: % of control remaining
[2] = target: T1, SARS-CoV-2 PLpro (nsp3 1564–1878); assay: biochemical; design: FRET-quenched peptide (Pro3) cleavage by PLpro, 10 min pre-incubation, slope over 20 min, normalised to no-compound control; settings: high concentration screen, read-out: % of control remaining

**Q.** For `OC[C@H]1O[C@@H](n2cnc3c(NCc4ccc(O)cc4)ncnc32)[C@H](O)[C@@H]1O` [N6-(4-Hydroxybenzyl)adenosine], which remaining activity at 1.25 µM ([1]; Well no.=7233) is on record?
**A.** 106%

**Q.** What about the remaining activity at 1.25 µM ([1]; Well no.=7954) of the same compound?
**A.** 101%

**Q.** What about the remaining activity at 3.75 µM ([2]; Well no.=7233) of the same compound?
**A.** 101%

**Q.** And the remaining activity at 3.75 µM ([2]; Well no.=7954)?
**A.** 97.1%

**Q.** Which remaining activity at 1.25 µM ([1]; Well no.=6395) does the source give for `CN1CC(=O)NC1=O` [N-Methylhydantoin] here?
**A.** 95.6%

**Q.** What about the remaining activity at 3.75 µM ([2]; Well no.=6395) of the same compound?
**A.** 98.5%

**Q.** What does the source list for `CN(C)c1cc2c(Nc3ccc4c(cnn4Cc4ccccc4)c3)ncnc2cn1` [GW2974]?
**A.** remaining activity at 1.25 µM ([1]; Well no.=523): 103%; remaining activity at 3.75 µM ([2]; Well no.=523): 100%

**Q.** Which results are given for `CCC(C)(C)C(=O)O[C@H]1C[C@@H](C)C=C2C=C[C@H](C)[C@H](CC[C@@H]3C[C@@H](O)CC(=O)O3)[C@H]21` [Simvastatin]?
**A.** remaining activity at 1.25 µM ([1]; Well no.=1620): 107%; remaining activity at 3.75 µM ([2]; Well no.=1620): 107%

**Q.** For `C[C@]12CC[C@H](O)CC1=CC[C@@H]1[C@@H]2CC[C@]2(C)C(=O)CC[C@@H]12` [Dehydroepiandrosterone], which remaining activity at 1.25 µM ([1]; Well no.=1972) is on record?
**A.** 94.1%

**Q.** What about the remaining activity at 3.75 µM ([2]; Well no.=1972) of the same compound?
**A.** 98.4%

**Q.** What does the source list for `Nc1nc2c(nc(Br)n2[C@@H]2O[C@@H]3COP(=O)(O)O[C@H]3[C@H]2O)c(=O)[nH]1` [8-Bromo-cGMP sodium]?
**A.** remaining activity at 1.25 µM ([1]; Well no.=214): 102%; remaining activity at 3.75 µM ([2]; Well no.=214): 102%

**Q.** Which results are given for `Cc1ncc(C[n+]2csc(CCO)c2C)c(N)n1` [Thiamine HCl (Vitamin B1)]?
**A.** remaining activity at 1.25 µM ([1]; Well no.=4638): 94.5%; remaining activity at 3.75 µM ([2]; Well no.=4638): 96.6%

**Q.** What does the source list for `CN1CCc2cc3c(cc2[C@H]1[C@@H]1OC(=O)c2c1ccc1c2OCO1)OCO3` [(+)-Bicuculline]?
**A.** remaining activity at 1.25 µM ([1]; Well no.=369): 103%; remaining activity at 1.25 µM ([1]; Well no.=3679): 99.7%; remaining activity at 3.75 µM ([2]; Well no.=369): 98.1%; remaining activity at 3.75 µM ([2]; Well no.=3679): 99.2%

**Q.** How did the remaining activity at 1.25 µM ([1]; Well no.=78) turn out when `N[C@@H]1CONC1=O` [D-Cycloserine] was run?
**A.** 100%

**Q.** What about the remaining activity at 3.75 µM ([2]; Well no.=78) of the same compound?
**A.** 102%

**Q.** `O=C1O[C@H]([C@@H](O)CO)C(O)=C1O` [Ascorbic acid] was tested. Which remaining activity at 1.25 µM ([1]; Well no.=4039) did it give?
**A.** 99.8%

**Q.** What about the remaining activity at 3.75 µM ([2]; Well no.=4039) of the same compound?
**A.** 99.5%

**Q.** With `O=C(C[C@H]1NCCC[C@@H]1O)Cn1cnc2cc(Br)c(Cl)cc2c1=O` (racemic) [Halofuginone] as the compound, how does the remaining activity at 1.25 µM ([1]; Well no.=7360) read?
**A.** 103%

**Q.** What about the remaining activity at 3.75 µM ([2]; Well no.=7360) of the same compound?
**A.** 95.2%

**Q.** What does the source list for `COc1cc2ncnc(Nc3ccc(F)c(Cl)c3)c2cc1NC(=O)/C=C/CN1CCCCC1` [Dacomitinib (PF299804,PF-00299804)]?
**A.** remaining activity at 1.25 µM ([1]; Well no.=5027): 94.2%; remaining activity at 3.75 µM ([2]; Well no.=5027): 95.4%

**Q.** With `CC(=O)/C(C)=N/O` [2,3-Butanedione monoxime] as the compound, how does the remaining activity at 1.25 µM ([1]; Well no.=22) read?
**A.** 103%

**Q.** What about the remaining activity at 3.75 µM ([2]; Well no.=22) of the same compound?
**A.** 105%

**Q.** `CC[C@]1(O)C[C@@H]2CN(CCc3c([nH]c4ccccc34)[C@@](C(=O)OC)(c3cc4c(cc3OC)N(C)[C@H]3[C@@](O)(C(=O)OC)[C@H](OC(C)=O)[C@]5(CC)C=CCN6CC[C@]43[C@@H]65)C2)C1` [Vinblastine] was tested. Which remaining activity at 1.25 µM ([1]; Well no.=2165) did it give?
**A.** 101%

**Q.** And the remaining activity at 3.75 µM ([2]; Well no.=2165)?
**A.** 103%

**Q.** For `N#Cc1c(Oc2cccc(OS(=O)(=O)CCCC(F)(F)F)c2)cccc1C(F)(F)F` [Bay 59-3074], which remaining activity at 1.25 µM ([1]; Well no.=8043) is on record?
**A.** 96.7%

**Q.** What about the remaining activity at 3.75 µM ([2]; Well no.=8043) of the same compound?
**A.** 96.5%

**Q.** Which results are given for `CN(C)c1ccccc1CN1CCCN(Cc2ccccc2N(C)C)C1c1ccncc1` [2-[(3-[2-(dimethylamino)benzyl]-2-(4-pyridinyl)tetrahydro-1(2H)-pyrimidinyl)methyl]-N,N-dimethylaniline]?
**A.** remaining activity at 1.25 µM ([1]; Well no.=5454): 96.1%; remaining activity at 3.75 µM ([2]; Well no.=5454): 100%

**Q.** Which remaining activity at 1.25 µM ([1]; Well no.=7377) does the source give for `CN(C)CCC(c1ccc(Br)cc1)c1ccccn1` (stereo not drawn) [Brompheniramine (maleate)] here?
**A.** 102%

**Q.** And the remaining activity at 3.75 µM ([2]; Well no.=7377)?
**A.** 105%

**Q.** Which results are given for `C[n+]1cccc(C(=O)O)c1`?
**A.** remaining activity at 1.25 µM ([1]; Well no.=3390): 94.5%; remaining activity at 3.75 µM ([2]; Well no.=3390): 99.5%

**Q.** `c1ccc2c(CC3=NCCN3)cccc2c1` [Naphazoline] was tested. Which remaining activity at 1.25 µM ([1]; Well no.=2007) did it give?
**A.** 105%

**Q.** What about the remaining activity at 3.75 µM ([2]; Well no.=2007) of the same compound?
**A.** 103%

**Q.** `CN1CCC(=C2c3ccccc3CCc3sccc32)CC1` [Pizotifen] was tested. Which remaining activity at 1.25 µM ([1]; Well no.=7531) did it give?
**A.** 103%

**Q.** What about the remaining activity at 3.75 µM ([2]; Well no.=7531) of the same compound?
**A.** 91.1%

**Q.** With `CC1=CC(=O)NS(=O)(=O)O1` [Acesulfame Potassium] as the compound, how does the remaining activity at 1.25 µM ([1]; Well no.=5318) read?
**A.** 94.9%

**Q.** And the remaining activity at 3.75 µM ([2]; Well no.=5318)?
**A.** 93.1%

**Q.** For `CCCc1nn(C)c2c(=O)[nH]c(-c3cc(S(=O)(=O)N4CCN(C)CC4)ccc3OCC)nc12` [Sildenafil], which remaining activity at 1.25 µM ([1]; Well no.=1836) is on record?
**A.** 99.2%

**Q.** What about the remaining activity at 3.75 µM ([2]; Well no.=1836) of the same compound?
**A.** 96.8%

**Q.** `COc1ccnc(C[S+]([O-])c2nc3cc(OC(F)F)ccc3[nH]2)c1OC` (stereo not drawn) [sodium 5-(difluoromethoxy)-2-((3,4-dimethoxypyridin-2-yl)methylsulfinyl)benzo[d]imidazol-1-ide hydrate] was tested. Which remaining activity at 1.25 µM ([1]; Well no.=5829) did it give?
**A.** 95.3%

**Q.** What about the remaining activity at 3.75 µM ([2]; Well no.=5829) of the same compound?
**A.** 96.9%

**Q.** Which remaining activity at 1.25 µM ([1]; Well no.=2609) does the source give for `N#CC(C#N)=C(N)/C(C#N)=C/c1ccc(O)cc1` [AG 112] here?
**A.** 97%

**Q.** What about the remaining activity at 3.75 µM ([2]; Well no.=2609) of the same compound?
**A.** 91.5%

**Q.** With `CC(=O)OCC(=O)NCCCOc1cccc(CN2CCCCC2)c1` [Roxatidine (Acetate Hydrochloride)] as the compound, how does the remaining activity at 1.25 µM ([1]; Well no.=6701) read?
**A.** 102%

**Q.** And the remaining activity at 3.75 µM ([2]; Well no.=6701)?
**A.** 105%

**Q.** What does the source list for `C[C@H](O)C(=O)C1=Nc2c(nc(N)[nH]c2=O)NC1` [Sepiapterin]?
**A.** remaining activity at 1.25 µM ([1]; Well no.=1183): 99.7%; remaining activity at 3.75 µM ([2]; Well no.=1183): 96.3%

**Q.** `N#CC(C#N)=C(N)/C(C#N)=C/c1cc(O)c(O)c(O)c1` [Tyrphostin 51] was tested. Which remaining activity at 1.25 µM ([1]; Well no.=1324) did it give?
**A.** 96.8%

**Q.** What about the remaining activity at 3.75 µM ([2]; Well no.=1324) of the same compound?
**A.** 95.8%

**Q.** With `OCCOCCN1CCN(C(c2ccccc2)c2ccc(Cl)cc2)CC1` (stereo not drawn) [Hydroxyzine 2HCl] as the compound, how does the remaining activity at 1.25 µM ([1]; Well no.=5082) read?
**A.** 98.5%

**Q.** What about the remaining activity at 3.75 µM ([2]; Well no.=5082) of the same compound?
**A.** 99.9%

**Q.** What does the source list for `CN(C)CCOc1cc(-c2cn[nH]c2)ccc1NC(=O)C1COc2ccccc2O1` (stereo not drawn) [SR3677]?
**A.** remaining activity at 1.25 µM ([1]; Well no.=2989): 97.2%; remaining activity at 3.75 µM ([2]; Well no.=2989): 98.3%

**Q.** What does the source list for `Cc1nc2cc(F)c(F)cc2n1-c1cncc(Nc2ccc(C(F)(F)F)cc2)n1` [PTC-028]?
**A.** remaining activity at 1.25 µM ([1]; Well no.=7024): 106%; remaining activity at 3.75 µM ([2]; Well no.=7024): 96.8%

**Q.** What does the source list for `C=CCN1CCc2c(cc(O)c(O)c2Br)[C@@H](c2ccccc2)C1` [R(+)-6-Bromo-APB hydrobromide]?
**A.** remaining activity at 1.25 µM ([1]; Well no.=277): 98.1%; remaining activity at 3.75 µM ([2]; Well no.=277): 97.4%

**Q.** For `NCc1c[nH]c(=S)n1[C@@H]1CCc2c(F)cc(F)cc2C1` [(R)-Nepicastat HCl], which remaining activity at 1.25 µM ([1]; Well no.=8886) is on record?
**A.** 91.4%

**Q.** And the remaining activity at 3.75 µM ([2]; Well no.=8886)?
**A.** 92%

**Q.** Which results are given for `CN[C@@H]1Cc2cccc3[nH]c(=O)n(c23)C1` [Sumanirole maleate]?
**A.** remaining activity at 1.25 µM ([1]; Well no.=5386): 99.1%; remaining activity at 3.75 µM ([2]; Well no.=5386): 104%

**Q.** For `NCCCC[C@@H]1NC(=O)[C@@H](Cc2ccc(O)cc2)NC(=O)[C@H](CC(=O)O)NC(=O)CNC(=O)[C@H](CCCN=C(N)N)NC1=O` [Cyclo(RGDyK) trifluoroacetate], which remaining activity at 1.25 µM ([1]; Well no.=8698) is on record?
**A.** 101%

**Q.** What about the remaining activity at 3.75 µM ([2]; Well no.=8698) of the same compound?
**A.** 97.8%
